The values that follow come from patent publication US11937603B2, “Maleimide derivatives having herbicidal activity, agronomic compositions of the maleimide derivatives, and uses thereof” (Gowan Company, LLC, priority 2018, dated 2024).

One assay concerns Sida spinosa. Nature of the assay: Herbicidal activity in post-emergence. The note with it: dose of 250 g/ha, post-emergence (BBCH 11-12), twenty-one days after treatment, vs untreated control. It counts as in vivo. How it is done:
(§1) The herbicidal activity of the compounds of the invention in post-emergence was evaluated according to the following operating modes.
(§2) The plant species of interest (weeds or crops) were sown in pots with a diameter greater than 10 cm, a height of 10 cm and containing sandy soil. Six pots were used for each plant species.
(§3) Water was added to each pot in an amount suitable for the germination of the seeds. The pots were then divided into two groups each containing 3 pots for each weed or crop.
(§4) Upon reaching the phenological stage of the plants with 1-2 extended leaves (BBCH 11-12), the first group of pots was treated with the same hydroacetone dispersion containing 20% acetone by volume, the compound under evaluation at the desired dose and Tween 20 at 0.5% by weight, indicated in Example 6.
(§5) The second group was treated only with a hydroacetone solution containing acetone at 20% by volume and Tween 20 at 0.5% by weight, and was used as a comparison term (control).
(§6) All the pots were kept under observation in a conditioned environment (greenhouse) under the following environmental conditions: • temperature: 24° C. during the day and 18° C. at night • relative humidity: >50% • photoperiod: 16 hours; • light intensity: 12,000 lux.
(§7) The pots were uniformly watered as needed, so as to ensure a degree of humidity sufficient for a good development of the plants.
(§8) Twenty-one days after treatment, the herbicidal activity was evaluated according to the percentage of damage (scale 0-100%) found on the treated plants compared to the untreated plants (control): • 0%=No effect on the plants • 100%=Complete death of the plants
(§9) Nrs. 11,4,2,3 compared with a hydroacetone dispersion containing the Compound CR1 described in EP0297378.
On to “1-(5-tert-butyl-1,3,4-thiadiazol-2-yl)-3,4-dimethyl-2-methoxyethylcarbonate-2H-pyrrol-2-yl-5-one [Compound 3]”, for which the “Herbicidal activity in post-emergence (percentage of damage, scale 0-100%)” value is recorded as 90%.

`CC1=C(C)C(O)N(c2cc(C(C)(C)C)on2)C1=O` (stereo not drawn) [CR1, 1-(5-tert-butylisoxazol-3-yl)-2-hydroxy-3,4-dimethyl-2H-pyrrol-5-one, reference compound]: the “Herbicidal activity in post-emergence (percentage of damage, scale 0-100%)” value is 40%.

Turning to `COCC(=O)OC1C(C)=C(C)C(=O)N1c1nnc(C(C)(C)C)s1` (stereo not drawn) [Compound 2, 1-(5-tert-butyl-1,3,4-thiadiazol-2-yl)-3,4-dimethyl-2-methoxyacetate-2H-pyrrol-5-one], the “Herbicidal activity in post-emergence (percentage of damage, scale 0-100%)” value is reported as 90%.

Consider `CC1=C(C)C(OC(=O)C2CC2)N(c2cc(C(C)(C)C)on2)C1=O` (stereo not drawn) [Compound 4, 1-(5-tert-butylisoxazole-3-yl)-2-cyclo-propanecarbonyloxy-3,4-dimethyl-2H-pyrrol-5-one], for which the “Herbicidal activity in post-emergence (percentage of damage, scale 0-100%)” value was 100%.

The next assay relates to Echinochloa crus-galli. Nature of the assay: Herbicidal activity in post-emergence. It counts as in vivo. The conditions noted are these: dose of 250 g/ha, post-emergence (BBCH 11-12), twenty-one days after treatment, vs untreated control. How it is done: as §1, §2, §3, §4, §5, §6, §7, §8, §9
In the case of “1-(5-tert-butyl-1,3,4-thiadiazol-2-yl)-3,4-dimethyl-2-methoxyethylcarbonate-2H-pyrrol-2-yl-5-one [Compound 3]”, the “Herbicidal activity in post-emergence (percentage of damage, scale 0-100%)” value came out at 95%.

With `CC1=C(C)C(O)N(c2cc(C(C)(C)C)on2)C1=O` (stereo not drawn) [CR1, 1-(5-tert-butylisoxazol-3-yl)-2-hydroxy-3,4-dimethyl-2H-pyrrol-5-one, reference compound], the “Herbicidal activity in post-emergence (percentage of damage, scale 0-100%)” value is 85%.

Regarding `COCC(=O)OC1C(C)=C(C)C(=O)N1c1nnc(C(C)(C)C)s1` (stereo not drawn) [Compound 2, 1-(5-tert-butyl-1,3,4-thiadiazol-2-yl)-3,4-dimethyl-2-methoxyacetate-2H-pyrrol-5-one], the “Herbicidal activity in post-emergence (percentage of damage, scale 0-100%)” value came to 100%.

In the case of `CC1=C(C)C(OC(=O)C2CC2)N(c2cc(C(C)(C)C)on2)C1=O` (stereo not drawn) [Compound 4, 1-(5-tert-butylisoxazole-3-yl)-2-cyclo-propanecarbonyloxy-3,4-dimethyl-2H-pyrrol-5-one], the “Herbicidal activity in post-emergence (percentage of damage, scale 0-100%)” value is 100%.

The next assay has as its system Digitaria sanguinalis. As to the kind of experiment: Herbicidal activity in post-emergence. Format: in vivo. The note with it: dose of 250 g/ha, post-emergence (BBCH 11-12), twenty-one days after treatment, vs untreated control. How it is done: as §1, §2, §3, §4, §5, §6, §7, §8, §9
With “1-(5-tert-butyl-1,3,4-thiadiazol-2-yl)-3,4-dimethyl-2-methoxyethylcarbonate-2H-pyrrol-2-yl-5-one [Compound 3]”, the “Herbicidal activity in post-emergence (percentage of damage, scale 0-100%)” value was determined as 90%.

On to `CC1=C(C)C(O)N(c2cc(C(C)(C)C)on2)C1=O` (stereo not drawn) [CR1, 1-(5-tert-butylisoxazol-3-yl)-2-hydroxy-3,4-dimethyl-2H-pyrrol-5-one, reference compound], for which the “Herbicidal activity in post-emergence (percentage of damage, scale 0-100%)” value is on record as 40%.

For `COCC(=O)OC1C(C)=C(C)C(=O)N1c1nnc(C(C)(C)C)s1` (stereo not drawn) [Compound 2, 1-(5-tert-butyl-1,3,4-thiadiazol-2-yl)-3,4-dimethyl-2-methoxyacetate-2H-pyrrol-5-one], the “Herbicidal activity in post-emergence (percentage of damage, scale 0-100%)” value stood at 100%.

Take `CC1=C(C)C(OC(=O)C2CC2)N(c2cc(C(C)(C)C)on2)C1=O` (stereo not drawn) [Compound 4, 1-(5-tert-butylisoxazole-3-yl)-2-cyclo-propanecarbonyloxy-3,4-dimethyl-2H-pyrrol-5-one]: the “Herbicidal activity in post-emergence (percentage of damage, scale 0-100%)” value is given as 100%.

For another assay, the system named is Lolium rigidum. Nature of the assay: Herbicidal activity in pre-emergence. It counts as in vivo. The conditions noted are these: dose of 250 g/ha, twenty-one days after treatment, vs untreated control. How it is done:
(§10) The herbicidal activity of the compounds of the invention in pre-emergence was evaluated according to the following operating modes.
(§11) The plant species of interest (weeds or crops) were sown in pots with a diameter of 10 cm, a height of 10 cm and containing sandy soil. Six pots of each plant species were used.
as §3
(§12) One day after sowing, the first group of pots was treated with a dispersion having the following composition:
(§13) The dispersion was prepared by adding a desired dose of a compound of the present invention to a hydroacetone solution containing acetone at 20% by volume and Tween 20 at 0.5% by weight, with respect to the total weight of the dispersion and applied on a surface of 2 square meters. […]
as §5, §6, §7, §8
(§14) Nrs. 4 and 2 compared with a dispersion containing the Compound CR1 described in EP0297378 instead of the compound having general formula (I): […]
Regarding `CC1=C(C)C(O)N(c2cc(C(C)(C)C)on2)C1=O` (stereo not drawn) [CR1, 1-(5-tert-butylisoxazol-3-yl)-2-hydroxy-3,4-dimethyl-2H-pyrrol-5-one, reference compound], the “Herbicidal activity in pre-emergence (percentage of damage, scale 0-100%)” value amounted to 80%.

On to `COCC(=O)OC1C(C)=C(C)C(=O)N1c1nnc(C(C)(C)C)s1` (stereo not drawn) [Compound 2, 1-(5-tert-butyl-1,3,4-thiadiazol-2-yl)-3,4-dimethyl-2-methoxyacetate-2H-pyrrol-5-one], for which the “Herbicidal activity in pre-emergence (percentage of damage, scale 0-100%)” value is listed as 100%.

`CC1=C(C)C(OC(=O)C2CC2)N(c2cc(C(C)(C)C)on2)C1=O` (stereo not drawn) [Compound 4, 1-(5-tert-butylisoxazole-3-yl)-2-cyclo-propanecarbonyloxy-3,4-dimethyl-2H-pyrrol-5-one]: the “Herbicidal activity in pre-emergence (percentage of damage, scale 0-100%)” value is 90%.

Another assay has as its system Setaria viridis. As to the kind of experiment: Herbicidal activity in pre-emergence. It counts as in vivo. The note with it: dose of 250 g/ha, twenty-one days after treatment, vs untreated control. How it is done:
as §10, §11, §3, §12, §13, §5, §6, §7, §8, §14
For the compound `CC1=C(C)C(O)N(c2cc(C(C)(C)C)on2)C1=O` (stereo not drawn) [CR1, 1-(5-tert-butylisoxazol-3-yl)-2-hydroxy-3,4-dimethyl-2H-pyrrol-5-one, reference compound], the “Herbicidal activity in pre-emergence (percentage of damage, scale 0-100%)” value worked out at 79%.

`COCC(=O)OC1C(C)=C(C)C(=O)N1c1nnc(C(C)(C)C)s1` (stereo not drawn) [Compound 2, 1-(5-tert-butyl-1,3,4-thiadiazol-2-yl)-3,4-dimethyl-2-methoxyacetate-2H-pyrrol-5-one]: the “Herbicidal activity in pre-emergence (percentage of damage, scale 0-100%)” value is 100%.

For the compound `CC1=C(C)C(OC(=O)C2CC2)N(c2cc(C(C)(C)C)on2)C1=O` (stereo not drawn) [Compound 4, 1-(5-tert-butylisoxazole-3-yl)-2-cyclo-propanecarbonyloxy-3,4-dimethyl-2H-pyrrol-5-one], the “Herbicidal activity in pre-emergence (percentage of damage, scale 0-100%)” value worked out at 100%.

The next assay concerns Abutilon theophrasti. Nature of the assay: Herbicidal activity in pre-emergence. It counts as in vivo. The conditions noted are these: dose of 250 g/ha, twenty-one days after treatment, vs untreated control. The procedure: as §10, §11, §3, §12, §13, §5, §6, §7, §8, §14
Take `CC1=C(C)C(O)N(c2cc(C(C)(C)C)on2)C1=O` (stereo not drawn) [CR1, 1-(5-tert-butylisoxazol-3-yl)-2-hydroxy-3,4-dimethyl-2H-pyrrol-5-one, reference compound]: the “Herbicidal activity in pre-emergence (percentage of damage, scale 0-100%)” value turned out to be 90%.

Regarding `COCC(=O)OC1C(C)=C(C)C(=O)N1c1nnc(C(C)(C)C)s1` (stereo not drawn) [Compound 2, 1-(5-tert-butyl-1,3,4-thiadiazol-2-yl)-3,4-dimethyl-2-methoxyacetate-2H-pyrrol-5-one], the “Herbicidal activity in pre-emergence (percentage of damage, scale 0-100%)” value worked out at 95%.

For the compound `CC1=C(C)C(OC(=O)C2CC2)N(c2cc(C(C)(C)C)on2)C1=O` (stereo not drawn) [Compound 4, 1-(5-tert-butylisoxazole-3-yl)-2-cyclo-propanecarbonyloxy-3,4-dimethyl-2H-pyrrol-5-one], the “Herbicidal activity in pre-emergence (percentage of damage, scale 0-100%)” value is recorded as 100%.

Another assay has as its system Amaranthus retroflexus. As to the kind of experiment: Herbicidal activity in pre-emergence. Format: in vivo. The note with it: dose of 250 g/ha, twenty-one days after treatment, vs untreated control. How it is done:
as §10, §11, §3, §12, §13, §5, §6, §7, §8, §14
On to `CC1=C(C)C(O)N(c2cc(C(C)(C)C)on2)C1=O` (stereo not drawn) [CR1, 1-(5-tert-butylisoxazol-3-yl)-2-hydroxy-3,4-dimethyl-2H-pyrrol-5-one, reference compound], for which the “Herbicidal activity in pre-emergence (percentage of damage, scale 0-100%)” value was 60%.

As to `COCC(=O)OC1C(C)=C(C)C(=O)N1c1nnc(C(C)(C)C)s1` (stereo not drawn) [Compound 2, 1-(5-tert-butyl-1,3,4-thiadiazol-2-yl)-3,4-dimethyl-2-methoxyacetate-2H-pyrrol-5-one], the “Herbicidal activity in pre-emergence (percentage of damage, scale 0-100%)” value turned out to be 92%.

As to `CC1=C(C)C(OC(=O)C2CC2)N(c2cc(C(C)(C)C)on2)C1=O` (stereo not drawn) [Compound 4, 1-(5-tert-butylisoxazole-3-yl)-2-cyclo-propanecarbonyloxy-3,4-dimethyl-2H-pyrrol-5-one], the “Herbicidal activity in pre-emergence (percentage of damage, scale 0-100%)” value stood at 80%.

A further assay concerns Solanum nigra. As to the kind of experiment: Herbicidal activity in pre-emergence. It counts as in vivo. The note with it: dose of 250 g/ha, twenty-one days after treatment, vs untreated control. The procedure: as §10, §11, §3, §12, §13, §5, §6, §7, §8, §14
For `CC1=C(C)C(O)N(c2cc(C(C)(C)C)on2)C1=O` (stereo not drawn) [CR1, 1-(5-tert-butylisoxazol-3-yl)-2-hydroxy-3,4-dimethyl-2H-pyrrol-5-one, reference compound], the “Herbicidal activity in pre-emergence (percentage of damage, scale 0-100%)” value amounted to 90%.

On to `COCC(=O)OC1C(C)=C(C)C(=O)N1c1nnc(C(C)(C)C)s1` (stereo not drawn) [Compound 2, 1-(5-tert-butyl-1,3,4-thiadiazol-2-yl)-3,4-dimethyl-2-methoxyacetate-2H-pyrrol-5-one], for which the “Herbicidal activity in pre-emergence (percentage of damage, scale 0-100%)” value is recorded as 95%.

Turning to `CC1=C(C)C(OC(=O)C2CC2)N(c2cc(C(C)(C)C)on2)C1=O` (stereo not drawn) [Compound 4, 1-(5-tert-butylisoxazole-3-yl)-2-cyclo-propanecarbonyloxy-3,4-dimethyl-2H-pyrrol-5-one], the “Herbicidal activity in pre-emergence (percentage of damage, scale 0-100%)” value is 100%.
